Common to all, as to assay: MIC/MBC by broth micro dilution
The test system of one test is MRSA ATCC 43300. The class given is cell-based, methicillin-resistant S. aureus. The conditions noted are these: Staphylococcus aureus; for MIC: 37 °C, 24 h, read-out: MIC; for MBC: lowest concentration reducing viable counts by 99.9%. The procedure: (§1) All the synthesised 1,2,3-triazole linked pleuromutilin analogues were screened for in vitro antibacterial activities against methicillin-resistant S. aureus (ATCC 43300), S. aureus (ATCC 29213), and two clinical strains of S. aureus (AD3 and 144, isolated from Guangdong Province, China). The MICs and MBCs of the synthesised pleuromutilin derivatives along with pleuromutilin and tiamulin used as the reference antibacterial drugs, were determined by the broth micro dilution methods according to the Clinical and Laboratory Standards Institute (CLSI)[18].
(§2) The MIC of these novel pleuromutilin derivatives against methicillin-resistant S. aureus (ATCC 43300), S. aureus (ATCC 29213), S. aureus (AD3) and S. aureus (144) were determined by using pleuromutilin and tiamulin as positive control. MIC values were determined by the broth micro dilution methods in accordance with the Clinical and Laboratory Standards Institute (2012). Stock solutions of these compounds were dissolved in methanol to make a stock solution with a concentration of 1280 µg/mL. The working solutions (640 µg/mL) were obtained by diluting stock solutions in sterile Mueller-Hinton (MH) broth. The bacterial solution and solutions of these compounds with a final concentration of 0.016–32 µg/mL were distributed into 96-well plates, with a total volume of 200 µL. Three parallel experiments for each compound concentration. The plates were incubated at 37 °C for 24 h.
(§3) MBC values were determined according to CLSI (2003) and previously report with slightly modification[18]^,[28]^,[31]. After obtaining the MIC results, the 96-well plates were incubated at 37 °C for 24 h. 100 µL of the bacterial solution from the wells with no visible growth was inoculated on MH agar plates. The MH agar plates were incubated at 37 °C for colony count. The MBC was determined as the lowest concentration of compound, which reduces the viable counts for 99.9%.

A further test relates to S. aureus ATCC 29213. It is filed as cell-based. The conditions noted are these: Staphylococcus aureus; for MIC: ATCC29213, 37 °C, 24 h; for MBC: ATCC29213, lowest concentration reducing viable counts by 99.9%. The procedure: as §1, §2, §3
The test system of a further test is S. aureus 144. The class given is cell-based. The settings on record: Staphylococcus aureus, S. aureus 144 (clinical strain); for MIC: 37 °C, 24 h; for MBC: lowest concentration reducing viable counts by 99.9%. The procedure:
as §1, §2, §3

The subject of a further test is S. aureus AD3. The class given is cell-based. The settings on record: Staphylococcus aureus, S. aureus AD3 (clinical strain); for MIC: 37 °C, 24 h; for MBC: lowest concentration reducing viable counts by 99.9%. The procedure: as §1, §2, §3

≈ marks a conversion by molar mass, not a printed value. A value given as a limit tells only on which side of the number the result lay.

The MIC is the least concentration at which growth counts as inhibited. In general, MBC refers to the smallest concentration meeting the test's criterion for killing. Higher therefore signals less potent killing. For `C=C[C@]1(C)C[C@@H](OC(=O)Cn2cc(CN3CCN(c4ccc(O)cc4)CC3)nn2)[C@]2(C)[C@H](C)CC[C@]3(CCC(=O)[C@H]32)[C@@H](C)[C@@H]1O` [Compound 67, 22-(2-(4-(4-(4-Hydroxyphenyl)-piperazin-1-yl)-methyl)-1H-1,2,3-triazol-1-yl)-22-deoxy pleuromutilin], the minimum inhibitory concentration (MIC) in the test with MRSA ATCC 43300 turned out to be 8 µg/mL (≈ 12.9 µM); with S. aureus ATCC 29213 it was 16 µg/mL (≈ 25.8 µM); against S. aureus 144, 32 µg/mL (≈ 51.6 µM); in the test with S. aureus AD3, 16 µg/mL (≈ 25.8 µM). Also, the MBC against MRSA ATCC 43300 was 16 µg/mL (≈ 25.8 µM); against S. aureus ATCC 29213, 32 µg/mL (≈ 51.6 µM); in the test on S. aureus 144, 32 µg/mL (≈ 51.6 µM); against S. aureus AD3, more than 32 µg/mL.

As for `C=CC1(C)CC(OC(=O)Cn2cc(CN(C3CCCCC3)C3CCCCC3)nn2)C2(C)C(C)CCC3(CCC(=O)C32)C(C)C1O` (centres unmarked) [Compound 81, 22-(2-(4-(Dicyclohexylamino)methyl)-1H-1,2,3-triazol-1-yl)-22-deoxy pleuromutilin], the MIC came out at 4 µg/mL (≈ 6.42 µM) in the test with MRSA ATCC 43300, 8 µg/mL (≈ 12.8 µM) with S. aureus ATCC 29213, 8 µg/mL (≈ 12.8 µM) in the test on S. aureus 144 and 8 µg/mL (≈ 12.8 µM) with S. aureus AD3. The minimal bactericidal concentration (MBC) against MRSA ATCC 43300 worked out at 8 µg/mL (≈ 12.8 µM); in the test with S. aureus ATCC 29213, 16 µg/mL (≈ 25.7 µM); against S. aureus 144, 16 µg/mL (≈ 25.7 µM); against S. aureus AD3, 32 µg/mL (≈ 51.4 µM).

With `C=CC1(C)CC(OC(=O)Cn2cc(CN3CCOCC3)nn2)C2(C)C(C)CCC3(CCC(=O)C32)C(C)C1O` (centres unmarked) [Compound 82, 22-(2-(4-(Morpholinomethyl)methyl)-1H-1,2,3-triazol-1-yl)-22-deoxy pleuromutilin], the MIC was 8 µg/mL (≈ 15.1 µM) in the test on MRSA ATCC 43300, 16 µg/mL (≈ 30.3 µM) with S. aureus ATCC 29213, 16 µg/mL (≈ 30.3 µM) in the test on S. aureus 144 and 16 µg/mL (≈ 30.3 µM) in the test on S. aureus AD3. The MBC against MRSA ATCC 43300 stood at 8 µg/mL (≈ 15.1 µM); against S. aureus ATCC 29213 it was 16 µg/mL (≈ 30.3 µM); in the test with S. aureus 144 it was 32 µg/mL (≈ 60.5 µM); in the test with S. aureus AD3 it was 32 µg/mL (≈ 60.5 µM).

Regarding `C=CC1(C)CC(OC(=O)Cn2cc(CN3CCC(O)CC3)nn2)C2(C)C(C)CCC3(CCC(=O)C32)C(C)C1O` (centres unmarked) [Compound 83, 22-(2-(4-(4-Hydroxypiperidin-1-yl)methyl)-1H-1,2,3-triazol-1-yl)-22-deoxy pleuromutilin], the MIC with MRSA ATCC 43300 was determined as 8 µg/mL (≈ 14.7 µM); against S. aureus ATCC 29213, 16 µg/mL (≈ 29.5 µM); in the test on S. aureus 144, 32 µg/mL (≈ 59 µM); in the test on S. aureus AD3 it was 16 µg/mL (≈ 29.5 µM). Besides, the minimal bactericidal concentration (MBC) in the test on MRSA ATCC 43300 came to 16 µg/mL (≈ 29.5 µM); in the test with S. aureus ATCC 29213 it was 32 µg/mL (≈ 59 µM); in the test with S. aureus 144, 32 µg/mL (≈ 59 µM); with S. aureus AD3, 32 µg/mL (≈ 59 µM).

Regarding `C=CC1(C)CC(OC(=O)Cn2cc(CN3CCCC(CO)C3)nn2)C2(C)C(C)CCC3(CCC(=O)C32)C(C)C1O` (centres unmarked) [Compound 84, 22-(2-(4-(3-(Hydroxymethyl)piperidin-1-yl)methyl)-1H-1,2,3-triazol-1-yl)-22-deoxy pleuromutilin], the MIC worked out at 8 µg/mL (≈ 14.4 µM) with MRSA ATCC 43300, 16 µg/mL (≈ 28.7 µM) against S. aureus ATCC 29213, 32 µg/mL (≈ 57.5 µM) in the test on S. aureus 144 and 16 µg/mL (≈ 28.7 µM) against S. aureus AD3. Also, the MBC against MRSA ATCC 43300 amounted to 16 µg/mL (≈ 28.7 µM); against S. aureus ATCC 29213, 32 µg/mL (≈ 57.5 µM); against S. aureus 144, 32 µg/mL (≈ 57.5 µM); against S. aureus AD3, 32 µg/mL (≈ 57.5 µM).

In the case of `C=CC1(C)CC(OC(=O)Cn2cc(CN3CCC(CCO)CC3)nn2)C2(C)C(C)CCC3(CCC(=O)C32)C(C)C1O` (centres unmarked) [Compound 85, 22-(2-(4-(4-(2-Hydroxyethyl)piperidin-1-yl)methyl)-1H-1,2,3-triazol-1-yl)-22-deoxy pleuromutilin], the MIC in the test with MRSA ATCC 43300 was found to be 8 µg/mL (≈ 14 µM); in the test on S. aureus ATCC 29213 it was 16 µg/mL (≈ 28 µM); against S. aureus 144, 16 µg/mL (≈ 28 µM); in the test with S. aureus AD3 it was 16 µg/mL (≈ 28 µM). In addition, the MBC in the test on MRSA ATCC 43300 worked out at 8 µg/mL (≈ 14 µM); against S. aureus ATCC 29213 it was 32 µg/mL (≈ 56.1 µM); against S. aureus 144, 32 µg/mL (≈ 56.1 µM); in the test with S. aureus AD3, 32 µg/mL (≈ 56.1 µM).

For the compound `C=C[C@]1(C)C[C@@H](OC(=O)CO)[C@]2(C)[C@H](C)CC[C@]3(CCC(=O)[C@H]32)[C@@H](C)[C@@H]1O` [Pleuromutilin, pleuromutilin], the MIC in the test on MRSA ATCC 43300 was 2 µg/mL (≈ 5.28 µM); with S. aureus ATCC 29213 it was 4 µg/mL (≈ 10.6 µM); in the test on S. aureus 144, 2 µg/mL (≈ 5.28 µM); in the test with S. aureus AD3 it was 2 µg/mL (≈ 5.28 µM). Moreover, the minimal bactericidal concentration (MBC) in the test on MRSA ATCC 43300 came to 4 µg/mL (≈ 10.6 µM); in the test with S. aureus ATCC 29213 it was 8 µg/mL (≈ 21.1 µM); in the test on S. aureus 144, 4 µg/mL (≈ 10.6 µM); in the test on S. aureus AD3 it was 4 µg/mL (≈ 10.6 µM).

(Values after PMC8635623, “A click chemistry approach to pleuromutilin derivatives, evaluation of anti-MRSA activity and elucidation of binding mode by surface plasmon resonance and molecular docking” (Journal of Enzyme Inhibition and Medicinal Chemistry, 2021).)
